Laboratory results as given in patent US10647990B2, “Rice high temperature resistance gene and use in crop breeding resistance to high temperature thereof” (SHANGHAI INSTITUTES FOR BIOLOGICAL SCIENCES, CHINESE …, priority 2014, dated 2020).
“Also recorded” adds a separate entry of the source. Peptide text beside a SMILES is read from it. * marks the point of attachment. Cbz = O=C(OCc1ccccc1)*

System: rice
Assay: MG132 treatment of rice during high temperature treatment (blocking the 26S proteasome degradation pathway)
Assay type: in vivo, Oryza sativa
Details: under high temperature stress; MG132 0 μM, 50 μM, 100 μM; FIG. 6G, H

CC(C)C[C@@H](C=O)NC(=O)[C@H](CC(C)C)NC(=O)[C@H](CC(C)C)NC(=O)OCc1ccccc1 [MG132] (Cbz-Leu-Leu-Leu-aldehyde)
high temperature resistance of rice: high temperature sensitive phenotype; also recorded: can reduce the high temperature resistance of rice
